Test results as given in US20080234262A1 (Wyeth, priority 2007, published 2008).

Key:
breast line MDA468 = test: In vitro cell culture growth assay (MTS), MDA468; type: cell-based, human; conditions: Homo sapiens, 72 h, MDA468 cells, three days after drug treatment
Summary of the method: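 Growth measured as percent of same-plate vehicle control by MTS metabolic dye conversion (A490). Breast MDA468 and prostate LNCap cells, plated a day ahead, were exposed to compounds for 3 days.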

PI3K = PI3K (Homo sapiens, UniProt P42336); test: Fluorescence polarization assay for PI3K; type: biochemical; conditions: PI3Kα; read-out: PI3Kα IC50;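 also: PI3K kinase reaction on PIP2 with ATP, 30-60 min, product sensed by GST-GRP with red probe in fluorescence polarization (mP), controls without enzyme and at zero time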
PI3K, sequence (P42336 whole entry): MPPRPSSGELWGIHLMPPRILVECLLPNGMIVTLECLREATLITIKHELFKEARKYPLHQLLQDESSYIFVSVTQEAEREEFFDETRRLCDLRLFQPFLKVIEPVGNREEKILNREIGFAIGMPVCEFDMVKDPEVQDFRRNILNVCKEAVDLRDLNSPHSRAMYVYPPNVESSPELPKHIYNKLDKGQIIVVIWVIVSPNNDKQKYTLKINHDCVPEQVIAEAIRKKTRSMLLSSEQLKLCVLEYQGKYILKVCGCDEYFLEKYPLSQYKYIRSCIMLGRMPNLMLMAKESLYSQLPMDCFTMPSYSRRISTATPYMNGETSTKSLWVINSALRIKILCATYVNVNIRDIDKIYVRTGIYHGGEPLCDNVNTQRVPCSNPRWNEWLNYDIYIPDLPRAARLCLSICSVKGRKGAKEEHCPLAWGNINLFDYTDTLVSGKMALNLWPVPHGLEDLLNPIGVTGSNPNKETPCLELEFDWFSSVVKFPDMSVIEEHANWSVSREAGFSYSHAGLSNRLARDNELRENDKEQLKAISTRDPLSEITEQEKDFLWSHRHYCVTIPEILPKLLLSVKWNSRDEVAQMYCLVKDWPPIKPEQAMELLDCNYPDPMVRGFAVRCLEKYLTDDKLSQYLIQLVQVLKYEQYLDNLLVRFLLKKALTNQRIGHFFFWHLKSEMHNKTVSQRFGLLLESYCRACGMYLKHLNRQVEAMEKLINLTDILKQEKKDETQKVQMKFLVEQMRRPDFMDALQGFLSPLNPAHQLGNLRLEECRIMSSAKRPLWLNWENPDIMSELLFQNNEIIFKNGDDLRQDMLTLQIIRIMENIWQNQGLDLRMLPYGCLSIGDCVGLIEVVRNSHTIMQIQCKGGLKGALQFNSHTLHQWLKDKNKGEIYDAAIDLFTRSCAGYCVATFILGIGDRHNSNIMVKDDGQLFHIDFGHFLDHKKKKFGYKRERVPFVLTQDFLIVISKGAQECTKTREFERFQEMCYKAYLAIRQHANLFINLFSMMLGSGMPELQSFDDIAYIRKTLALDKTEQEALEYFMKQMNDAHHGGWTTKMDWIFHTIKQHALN
PI3K, sequence (P27986 whole entry partner): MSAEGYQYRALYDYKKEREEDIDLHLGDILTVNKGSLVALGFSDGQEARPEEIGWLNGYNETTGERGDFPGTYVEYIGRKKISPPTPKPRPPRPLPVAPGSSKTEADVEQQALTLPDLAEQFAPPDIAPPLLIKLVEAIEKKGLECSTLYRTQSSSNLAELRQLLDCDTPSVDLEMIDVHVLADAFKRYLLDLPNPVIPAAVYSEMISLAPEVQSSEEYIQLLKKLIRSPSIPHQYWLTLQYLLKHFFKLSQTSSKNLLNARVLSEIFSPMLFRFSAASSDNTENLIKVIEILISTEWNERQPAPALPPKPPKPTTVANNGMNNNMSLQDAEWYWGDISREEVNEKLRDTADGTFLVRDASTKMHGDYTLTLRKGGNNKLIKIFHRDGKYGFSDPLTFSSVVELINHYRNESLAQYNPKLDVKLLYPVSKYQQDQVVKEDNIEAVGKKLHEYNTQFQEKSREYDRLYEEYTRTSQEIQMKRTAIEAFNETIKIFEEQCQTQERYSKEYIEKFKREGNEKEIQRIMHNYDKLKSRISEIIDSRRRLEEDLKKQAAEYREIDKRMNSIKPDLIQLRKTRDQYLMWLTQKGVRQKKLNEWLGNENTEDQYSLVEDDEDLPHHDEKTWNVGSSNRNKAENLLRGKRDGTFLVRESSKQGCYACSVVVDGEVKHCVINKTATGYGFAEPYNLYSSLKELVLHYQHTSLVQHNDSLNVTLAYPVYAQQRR

prostate line LNCap = test: In vitro cell culture growth assay (MTS), LNCap; type: cell-based, human; conditions: Homo sapiens, 72 h, LNCap cells, three days after drug treatment;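 also: viable cell density read by absorbance at 490 nm, growth expressed as percent of vehicle-treated cells on the same plate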

With `O=C1CCC(n2ncc3c(N4CCOCC4)nc(-c4ccc5[nH]ccc5c4)nc32)CC1` [Compound 143, 4-[6-(1H-indol-5-yl)-4-morpholin-4-yl-1H-pyrazolo[3,4-d]pyrimidin-1-yl]cyclohexanone] the IC50 (breast line MDA468) was 1.7 µM, the IC50 (PI3K) was 0.703 µM and the IC50 (prostate line LNCap; LNCaP) was 0.18 µM.

`NCc1cccc(-c2nc(N3CCOCC3)c3cnn(-c4ccccc4)c3n2)c1` [Compound 144] showed an IC50 (breast line MDA468) of 3.8 µM, an IC50 (PI3K) of 0.627 µM and an IC50 (prostate line LNCap; LNCaP) of 2.4 µM.

`CC(=O)NCc1cccc(-c2nc(N3CCOCC3)c3cnn(-c4ccccc4)c3n2)c1` [Compound 145] gave an IC50 (breast line MDA468) of 21 µM, an IC50 (PI3K) of 0.583 µM and an IC50 (prostate line LNCap; LNCaP) of 5.5 µM.

For `NCc1ccc(-c2nc(N3CCOCC3)c3cnn(-c4ccccc4)c3n2)cc1` [Compound 146], the IC50 (breast line MDA468) was 4 µM, the IC50 (PI3K) was 0.457 µM and the IC50 (prostate line LNCap; LNCaP) was 1.7 µM.

`CC(=O)NCc1ccc(-c2nc(N3CCOCC3)c3cnn(-c4ccccc4)c3n2)cc1` [Compound 147] gave an IC50 (breast line MDA468) of 22 µM, an IC50 (PI3K) of 0.35 µM and an IC50 (prostate line LNCap; LNCaP) of 5.6 µM.

Work on `CC(=O)Nc1ccc(-c2nc(N3CCOCC3)c3cnn(-c4ccccc4)c3n2)cn1` [Compound 148] yielded an IC50 (breast line MDA468) of 60 µM, an IC50 (PI3K) of 0.162 µM and an IC50 (prostate line LNCap; LNCaP) of 60 µM.

For `CN(C)C1CCC(n2ncc3c(N4CCOCC4)nc(-c4ccc5[nH]ccc5c4)nc32)CC1` (stereo not drawn) [Compound 150], the IC50 (breast line MDA468) was 2.1 µM, the IC50 (PI3K) was 1.95 µM and the IC50 (prostate line LNCap; LNCaP) was 0.3 µM.

`c1cc2cc(-c3nc(N4CCOCC4)c4cnn(C5CCC(N6CCCC6)CC5)c4n3)ccc2[nH]1` (stereo not drawn) [Compound 151] gave an IC50 (breast line MDA468) of 2.3 µM, an IC50 (PI3K) of 1.27 µM and an IC50 (prostate line LNCap; LNCaP) of 0.52 µM.

For `OC1CCC(n2ncc3c(N4CCOCC4)nc(-c4ccc5[nH]ccc5c4)nc32)CC1` (stereo not drawn) [Compound 152, 4-[6-(1H-indol-5-yl)-4-morpholin-4-yl-1H-pyrazolo[3,4-d]pyrimidin-1-yl]cyclohexanol], the IC50 (breast line MDA468) was 2.3 µM, the IC50 (PI3K) was 1.13 µM and the IC50 (prostate line LNCap; LNCaP) was 0.6 µM.

Compound `COc1ccc(NC2CCC(n3ncc4c(N5CCOCC5)nc(-c5ccc6[nH]ccc6c5)nc43)CC2)cc1` (stereo not drawn) [Compound 153] has an IC50 (breast line MDA468) of 6.5 µM, an IC50 (PI3K) of 0.46 µM and an IC50 (prostate line LNCap; LNCaP) of 2 µM.

`Clc1ccc(-c2nc(N3CCOCC3)c3cnn(C4CCN(Cc5ccccc5)CC4)c3n2)cn1` [Compound 156] gave an IC50 (breast line MDA468) of 35 µM, an IC50 (PI3K) of 0.45 µM and an IC50 (prostate line LNCap; LNCaP) of 3.3 µM.

`Clc1cc(-c2nc(N3CCOCC3)c3cnn(C4CCN(Cc5ccccc5)CC4)c3n2)ccn1` [Compound 157] gave an IC50 (breast line MDA468) of 60 µM, an IC50 (PI3K) of 1.03 µM and an IC50 (prostate line LNCap; LNCaP) of 33 µM.

With `CN(C)CCCn1ncc2c(N3CCOCC3)nc(-c3ccc4[nH]ccc4c3)nc21` [Compound 160] the IC50 (breast line MDA468) was 15 µM, the IC50 (PI3K) was 6 µM and the IC50 (prostate line LNCap; LNCaP) was 2.8 µM.

`O=C1CCCN1CCn1ncc2c(N3CCOCC3)nc(-c3ccc4[nH]ccc4c3)nc21` [Compound 161] showed an IC50 (breast line MDA468) of 60 µM, an IC50 (PI3K) of 3.51 µM and an IC50 (prostate line LNCap; LNCaP) of 14 µM.

For `c1cc2cc(-c3nc(N4CCOCC4)c4cnn(CCN5CCNCC5)c4n3)ccc2[nH]1` [Compound 162, 6-(1H-indol-5-yl)-4-morpholin-4-yl-1-(2-piperazin-1-ylethyl)-1H-pyrazolo[3,4-d]pyrimidine], the IC50 (breast line MDA468) was 60 µM, the IC50 (PI3K) was 1.85 µM and the IC50 (prostate line LNCap; LNCaP) was 33 µM.

With `CN(C)CCCn1ncc2c(N3CCOCC3)nc(-c3cccc(O)c3)nc21` [Compound 163] the IC50 (breast line MDA468) was 6 µM, the IC50 (PI3K) was 0.06 µM and the IC50 (prostate line LNCap; LNCaP) was 1.5 µM.

For `O=C1CCCN1CCn1ncc2c(N3CCOCC3)nc(-c3cccc(O)c3)nc21` [Compound 164], the IC50 (breast line MDA468) was 20 µM, the IC50 (PI3K) was 0.23 µM and the IC50 (prostate line LNCap; LNCaP) was 5.7 µM.

Work on `Oc1cccc(-c2nc(N3CCOCC3)c3cnn(CCN4CCOCC4)c3n2)c1` [Compound 165] yielded an IC50 (breast line MDA468) of 12 µM, an IC50 (PI3K) of 0.176 µM and an IC50 (prostate line LNCap; LNCaP) of 3 µM.

Compound `Oc1cccc(-c2nc(N3CCOCC3)c3cnn(CCN4CCNCC4)c3n2)c1` [Compound 166] has an IC50 (breast line MDA468) of 15 µM, an IC50 (PI3K) of 0.045 µM and an IC50 (prostate line LNCap; LNCaP) of 5.8 µM.

In the case of `CC(C)(C)OC(=O)N1CCC[C@@H](n2ncc3c(N4CCOCC4)nc(-c4ccc5[nH]ccc5c4)nc32)C1` [Compound 167], the IC50 (breast line MDA468) is reported as 3.1 µM, the IC50 (PI3K) is reported as 0.89 µM and the IC50 (prostate line LNCap; LNCaP) is reported as 3 µM.

Work on `CC(C)(C)OC(=O)N1CCC[C@H](n2ncc3c(N4CCOCC4)nc(-c4ccc5[nH]ccc5c4)nc32)C1` [Compound 169] yielded an IC50 (breast line MDA468) of 12 µM, an IC50 (PI3K) of 0.341 µM and an IC50 (prostate line LNCap; LNCaP) of 2 µM.

`c1cc2cc(-c3nc(N4CCOCC4)c4cnn(C5CCSCC5)c4n3)ccc2[nH]1` [Compound 171] was tested, and the IC50 (breast line MDA468) was 2.9 µM, the IC50 (PI3K) was 0.552 µM and the IC50 (prostate line LNCap) was 0.73 µM.

`Clc1ccc(CN2CCC(n3ncc4c(N5CCOCC5)nc(-c5ccc6[nH]ccc6c5)nc43)CC2)cn1` [Compound 174, 1-{1-[(6-chloropyridin-3-yl)methyl]piperidin-4-yl}-6-(1H-indol-5-yl)-4-orpholin-4-yl-1H-pyrazolo[3,4-d]pyrimidine] showed an IC50 (breast line MDA468) of 2.8 µM, an IC50 (PI3K) of 0.304 µM and an IC50 (prostate line LNCap; LNCaP) of 1 µM.

`Clc1ncccc1CN1CCC(n2ncc3c(N4CCOCC4)nc(-c4ccc5[nH]ccc5c4)nc32)CC1` [Compound 175] was tested, and the IC50 (breast line MDA468) was 2 µM, the IC50 (PI3K) was 0.462 µM and the IC50 (prostate line LNCap; LNCaP) was 1.1 µM.

`COc1ccc(CN2CCC(n3ncc4c(N5CCOCC5)nc(-c5ccc6[nH]ccc6c5)nc43)CC2)cn1` [Compound 176] showed an IC50 (breast line MDA468) of 2.6 µM, an IC50 (PI3K) of 0.352 µM and an IC50 (prostate line LNCap; LNCaP) of 1 µM.

`COc1ncccc1CN1CCC(n2ncc3c(N4CCOCC4)nc(-c4ccc5[nH]ccc5c4)nc32)CC1` [Compound 177] was tested, and the IC50 (breast line MDA468) was 3.1 µM, the IC50 (PI3K) was 0.885 µM and the IC50 (prostate line LNCap; LNCaP) was 1.3 µM.

In the case of `c1ccc(CN2CCC(n3ncc4c(N5CCOCC5)nc(-c5ccc6[nH]ccc6c5)nc43)CC2)nc1` [Compound 178], the IC50 (breast line MDA468) is reported as 2.1 µM, the IC50 (PI3K) is reported as 0.509 µM and the IC50 (prostate line LNCap; LNCaP) is reported as 0.55 µM.

`c1cc(CN2CCC(n3ncc4c(N5CCOCC5)nc(-c5ccc6[nH]ccc6c5)nc43)CC2)ccn1` [Compound 179] gave an IC50 (breast line MDA468) of 1.8 µM, an IC50 (PI3K) of 0.649 µM and an IC50 (prostate line LNCap; LNCaP) of 0.6 µM.

For `CC(=O)Nc1ccc(-c2nc(N3CCOCC3)c3cnn(Cc4ccccc4)c3n2)cc1` [Compound 180], the IC50 (breast line MDA468) was 5.8 µM, the IC50 (PI3K) was 0.405 µM and the IC50 (prostate line LNCap; LNCaP) was 2 µM.

Work on `COc1cc(-c2nc(N3CCOCC3)c3cnn(C4CCN(Cc5ccccc5)CC4)c3n2)ccc1N` [Compound 181] yielded an IC50 (breast line MDA468) of 5.5 µM, an IC50 (PI3K) of 2.48 µM and an IC50 (prostate line LNCap; LNCaP) of 1.5 µM.

Work on `COc1cc(-c2nc(N3CCOCC3)c3cnn(C4CCN(Cc5ccccc5)CC4)c3n2)ccc1NC(C)=O` [Compound 182] yielded an IC50 (breast line MDA468) of 4.1 µM, an IC50 (PI3K) of 3.93 µM and an IC50 (prostate line LNCap; LNCaP) of 5 µM.

`Nc1ccc(-c2nc(N3CCOCC3)c3cnn(C4CCN(Cc5ccccc5)CC4)c3n2)cc1[N+](=O)[O-]` [Compound 183, 4-[1-(1-benzylpiperidin-4-yl)-4-morpholin-4-yl-1H-pyrazolo[3,4-d]pyrimidin-6-yl]-2-nitroaniline] showed an IC50 (breast line MDA468) of 13 µM, an IC50 (PI3K) of 1.17 µM and an IC50 (prostate line LNCap; LNCaP) of 11 µM.

`CC(=O)Nc1ccc(-c2nc(N3CCOCC3)c3cnn(C4CCN(Cc5ccccc5)CC4)c3n2)cc1[N+](=O)[O-]` [Compound 184, N-{4-[1-(1-benzylpiperidin-4-yl)-4-morpholin-4-yl-1H-pyrazolo[3,4-d]pyrimidin-6-yl]-2-nitrophenyl}acetamide] gave an IC50 (breast line MDA468) of 60 µM, an IC50 (PI3K) of 3.08 µM and an IC50 (prostate line LNCap; LNCaP) of 60 µM.

For `CCCCNC(=O)Nc1ccc(-c2nc(N3CCOCC3)c3cnn(C4CCN(Cc5ccccc5)CC4)c3n2)cc1` [Compound 185], the IC50 (breast line MDA468) was 3.9 µM, the IC50 (PI3K) was 0.18 µM and the IC50 (prostate line LNCap; LNCaP) was 1.2 µM.

For `CC(C)C(=O)Nc1ccc(-c2nc(N3CCOCC3)c3cnn(C4CCN(Cc5ccccc5)CC4)c3n2)cc1` [Compound 186], the IC50 (breast line MDA468) was 3.9 µM, the IC50 (PI3K) was 3.42 µM and the IC50 (prostate line LNCap; LNCaP) was 4 µM.
